Converted amounts (≈) assume the structure as drawn. Read-outs that look alike come from different tables or passages of the source. Marks after values point to notes of the source that are not given here.
How the values were obtained:
Assay type in all cases: physicochemical
Hygroscopicity by DVS = assay: Hygroscopicity by DVS
Method: DVS is measured via a SMS (Surface Measurement Systems) DVS Intrinsic. The relative humidity at 25° C. is calibrated against deliquescence point of LiCl, Mg(NO3)2 and KCl.
DVS isotherm plot was collected at 25° C. to investigate the selected solid forms stability as a function of humidity. Compared with amorphous freebase, the hygroscopicity of Freebase Type B, Fumarate Type A, Fumarate Type B and Fumarate Type E was lower under 80% RH/25° C.

[1] = TGA and DSC/mDSC thermal analysis (characterization of forms); details: for TGA weight loss (%, temp.): to 150° C.
Method: In salt screening and evaluation and in polymorph study, TGA was performed using a TA Q500, TA Q5000 or Discovery 5500 TGA from TA Instruments. DSC or mDSC was performed using a TA Q200/Q2000 or Discovery 2500 DSC from TA Instruments.

[2] = Slurry competition (interconversion of free base forms at different water activity); details: slurry at 24 ±3° C.
Method: Slurry competition experiments were performed to study the interconversion relationship between Freebase Type B and Freebase Type C. […] The inter-conversion relationship among anhydrate Freebase Type B and hydrates Type C/F/G was further investigated under different water activities at RT. the saturated solution of Freebase Type B was obtained via slurry of Freebase Type B at RT overnight in corresponding solvent systems. A mixture of Freebase Type B+C+F+G was added into corresponding saturated solution of Freebase Type B to form suspensions. The suspensions were sampled for XRPD after being stirred for four days at a speed of 750 rpm under RT.

[3] = Mechanical stability (XRPD form change after grinding and tableting); details: for XRPD form change after grinding: grinding ~5 min; for XRPD form change after tableting: tableting ~234 Mpa
Method: Mechanical stability of the solid forms was evaluated by monitoring the XRPD form change after grinding (˜5 min) and tableting (˜234 Mpa).

[4] = Equilibrium solubility in pH 4.5 buffer; details: 37° C., stirred 24 hours
Method: (§1) An Agilent 1260 HPLC instrument was utilized and detailed chromatographic conditions for purity and solubility analysis were listed in Table 6.
About 5˜10 mg of solids were suspended in pH 4.5 buffer to get a mixture. The suspensions were stirred for 24 hours, followed by centrifugation and filtration to obtain supernatants for HPLC test.

[5] = Form change on storage/exposure at ambient conditions (XRPD); details: storage / exposure at ambient condition (Freebase Type E: 30 m)
Method: About 15 mg of Fumarate Type A of compound (I) was suspended in 0.5 mL of H2O in an HPLC vial. The suspension was magnetically stirred at a speed of about 1000 rpm at RT for 9 days. The wet solids were isolated to afford Fumarate Type C of compound (I) (wet sample was analyzed). […] XRPD patterns and data were shown in FIG. 10 and Table 10, respectively.
About 60 mg of Amorphous Freebase of compound (I) was suspended in 2 mL of THF/H2O (1:4, v/v) in an HPLC vial. The suspension was magnetically stirred at a speed of about 1000 rpm at 5° C. for 4 days. The solids were isolated via centrifugation and dried at ambient condition for about 2 hours. After sweeping the solids by N2 for 20 min at 30° C. Freebase Type E of compound (I) was obtained.

[6] = Contact angle against water (wettability)
Method: The wettability of the solid forms was evaluated by the contact angle against water.

[7] = Solid state stability, 40° C./75% RH/open for 1 month (XRPD, HPLC purity); details: for Purity/Initial by HPLC area % / Form Change: 40° C., 75% RH, open; for Form Change: by XRPD
Method: as §1
To evaluate the solid state stability of the selected forms (amorphous freebase, Freebase Type F, Fumarate Type A and Fumarate Type B) samples were stored under 40° C./75% RH/open for 1 month. Stability samples were characterized by XRPD to check any solid form change and by HPLC to check purity change.

[8] = Equilibrium solubility in H2O; details: 37° C., stirred 24 hours
Method: as §1
About 5˜10 mg of solids were suspended in H2O to get a mixture. The suspensions were stirred for 24 hours, followed by centrifugation and filtration to obtain supernatants for HPLC test.

Crystal habit by PLM = assay: Crystal habit by PLM
Source text: The PLM images were captured with Carl Zeiss Axio Scope. A1 microscope at RT.
PLM was used to observe the crystal habit of the particles (amorphous freebase and Fumarate Type A).

[9] = Bulk density, tap density and Carr index (flowability and compressibility); details: listed as Freebase amorphous
Method: Bulk density was determined by adding appropriate amount (m) of material into a 5 mL graduate cylinder and recording its apparent volume (v0). The bulk density was obtained by dividing the amount of material by its apparent volume of the unsettled material (ρ0=m/v0). For tap density, the cylinder was then tapped for 200 times. The tap density was then calculated by dividing the amount of material by its final tapped volume (ρ1=m/v1). Carr index=(ρ1−ρ0)/ρ1.
(§2) The results of amorphous freebase, Freebase Type F, Fumarate Type B and Fumarate Type E for flowability and compressibility were summarized in Table 30. Generally, powders with smaller Karl index would show better compressibility and flowability. And powders with smaller angle of repose would show better flowability.

[10] = Angle of repose (flowability); details: listed as Freebase amorphous
Source text: Form the angle of repose on a fixed base with a retaining lip to retain a layer of powder on the base. Carefully build up a symmetrical cone of powder. Determine the angle of repose by measuring the height (h) and base radius (r) of the cone of powder and calculating the angle of repose a from the following equation α=tan^−1(h/r).
as §2

[11] = Equilibrium solubility in pH 6.8 buffer; details: 37° C., stirred 24 hours
Method: as §1
About 5˜10 mg of solids were suspended in pH 6.8 buffer to get a mixture. The suspensions were stirred for 24 hours, followed by centrifugation and filtration to obtain supernatants for HPLC test.

[12] = Kinetic solubility in FaSSIF; details: FaSSIF, 37 °C, thermodynamic from solid
Method: as §1
Kinetic solubility of amorphous freebase and Fumarate Type B/E was measured in FaSSIF to evaluate the solubility. […] After centrifugation, supernatants were collected for HPLC tests.

Hygroscopicity (in words) (Hygroscopicity by DVS)	Weight change at 80% RH/25° C. by DVS (Hygroscopicity by DVS)	TGA weight loss (%, temp.) ([1]; free base forms)	XRPD form change after grinding [3]	XRPD form change after tableting [3]	Solubility in pH 4.5 buffer [4]	TGA weight loss (150° C., %) ([1]; crystalline salts)	Form Change [7]	Solubility in H2O [8]	Structure (SMILES)	Form conversion at ambient conditions [5]	Crystal habit of the particles (Crystal habit by PLM)	other results
slightly hygroscopic	0.2%	3.5 (to 150° C.) %	No	No	0.3 mg/mL	–	–	–	COc1ccc2ncnc(Nc3ccc(Oc4cc5ncnn5cn4)c(C)c3)c2c1O[C@@H]1CCN(C)CC1(F)F [Freebase Type B, (R)-N-(4-([1,2,4]triazolo[1,5-c]pyrimidin-7-yloxy)-3-methylphenyl)-5-((3,3-difluoro-1-methylpiperidin-4-yl)oxy)-6-methoxyquinazolin-4-amine]	–	–	DSC endotherm (° C., peak) ([1]; free base forms): 169.4 °C; Critical water activity between Freebase Type B and Type C [2]: 0.8-1
–	–	–	–	–	–	–	–	–	COc1ccc2ncnc(Nc3ccc(Oc4cc5ncnn5cn4)c(C)c3)c2c1O[C@@H]1CCN(C)CC1(F)F [Freebase Type E, (R)-N-(4-([1,2,4]triazolo[1,5-c]pyrimidin-7-yloxy)-3-methylphenyl)-5-((3,3-difluoro-1-methylpiperidin-4-yl)oxy)-6-methoxyquinazolin-4-amine]	converted to Freebase Type C	–	–
slightly hygroscopic	0.8%	–	No	No	≥8.4 mg/mL	1.9%	No	≥5.0 mg/mL	COc1ccc2ncnc(Nc3ccc(Oc4cc5ncnn5cn4)c(C)c3)c2c1O[C@@H]1CCN(C)CC1(F)F [Fumarate Type A, (R)-N-(4-([1,2,4]triazolo[1,5-c]pyrimidin-7-yloxy)-3-methylphenyl)-5-((3,3-difluoro-1-methylpiperidin-4-yl)oxy)-6-methoxyquinazolin-4-amine]	–	rod-like particles with regular shape	Contact angle [6]: 20.3°; DSC endotherm (° C., peak) ([1]; crystalline salts): 167.6 °C; DSC endotherm (° C., peak) ([1]; fumarate forms): 167.6 °C; TGA weight loss (%, temp.) ([1]; fumarate forms): 1.9 (to 150° C.) %; Purity/Initial by HPLC area % [7]: 100.1%; Purity change by HPLC (chemical stability) compared with amorphous freebase ([7]; 40° C./75% RH): lower purity change; Solid form change by XRPD (physical stability) ([7]; 40° C./75% RH/open): no form change
–	–	–	–	–	–	1.5%	–	–	COc1ccc2ncnc(Nc3ccc(Oc4cc5ncnn5cn4)c(C)c3)c2c1O[C@@H]1CCN(C)CC1(F)F [Fumarate Type C, (R)-N-(4-([1,2,4]triazolo[1,5-c]pyrimidin-7-yloxy)-3-methylphenyl)-5-((3,3-difluoro-1-methylpiperidin-4-yl)oxy)-6-methoxyquinazolin-4-amine]	Form conversion between Fumarate Type C and Fumarate Type B	–	–
–	–	1.9 (to 150° C.) %	–	–	0.18 mg/mL	–	No	0.16 mg/mL (≈ 292 µM)	COc1ccc2ncnc(Nc3ccc(Oc4cc5ncnn5cn4)c(C)c3)c2c1O[C@@H]1CCN(C)CC1(F)F [amorphous freebase, (R)-N-(4-([1,2,4]triazolo[1,5-c]pyrimidin-7-yloxy)-3-methylphenyl)-5-((3,3-difluoro-1-methylpiperidin-4-yl)oxy)-6-methoxyquinazolin-4-amine]	–	irregular-shaped particles without defined boundary	Weight change at 80% RH/25° C. by DVS (Hygroscopicity by DVS; listed as Freebase amorphous): 4.2%; Contact angle ([6]; listed as Freebase amorphous): 37.2°; Tg, middle temperature ([1]; amorphous free base, starred value in DSC column): 58.7* ° C.; Carr index ([9]; (ρ1−ρ0)/ρ1): 43.8%; Bulk density [9]: 0.23 g/mL; Tapped density ([9]; tapped 200 times): 0.40 g/mL; Angle of repose [10]: 39.9°; Purity/Initial by HPLC area % ([7]; listed as Freebase amorphous): 99.2%; Solubility in pH 6.8 buffer [11]: 0.15 mg/mL; solubility at 1 h ([12]; timepoint 1 h): 0.28 mg/mL (≈ 510 µM); solubility at 2 h ([12]; timepoint 2 h): 0.27 mg/mL (≈ 492 µM); solubility at 24 h ([12]; timepoint 24 h): 0.26 mg/mL (≈ 474 µM)

— patent US20240417403A1, “CRYSTALLINE FORMS OF QUINAZOLINE DERIVATIVES, PREPARATION, COMPOSITION AND USE THEREOF” (Hoffmann-La Roche Inc., priority 2021, published 2024)
